Each structure is given as a SMILES string.

Experiment [1] concerns Candida dubliniensis. Kind of experiment: Coloration of Candida dubliniensis colonies on detection medium. Set-up: key: 0=no coloration; 0.5=trace of coloration; 1=weak coloration; 2=strong coloration. Format: cell-based. Here is the method:
(§1) Preparation of the detection medium: A volume of 250 ml of detection medium is prepared from a powdered medium having the following composition:
(§2) Melting is carried out at 100° C., and the medium is autoclaved at 121° C. for 15 minutes. The additives are then added to the medium: Magenta C8 (500 mg/l; B-7102, BIOSYNTH, Staad, Switzerland); X-glucoside (75 mg/l; B-7250, BIOSYNTH, Staad, Switzerland); cefsulodine (10 mg/l; C 4786, Sigma, St Quentin Fallavier, France), and also the esterase inhibitor: • ? O,O-diethyl p-nitrophenyl phosphate: 5 mg/l • ? O,O-dimethyl p-nitrophenyl phosphate: 25 mg/l or • ? O,O-di-(2-chloroethyl)-O-(3-chloro-4-methylcoumarin-7-yl)phosphate: 75 mg/l
(§3) The various selection media thus obtained are then poured into Petri dishes.
(§4) Seeding of yeast of the Candida genus: 10 μl of stools are deposited onto a Petri dish, and this stool suspension is mixed or not mixed with 10 μl of a suspension of Candida and isolated as 3 dials on a Petri dish. Various stools and various strains of Candida genus originating from the applicant's collection are used according to this protocol. The Petri dishes are incubated at 37° C. for 24 hours.
(§5) The appearance of a coloration at the point of deposit of the stool and in the Candida colonies is read according to a semi-quantitative scale: • 0=absence of coloration • 0.5=trace coloration • 1=weak coloration • 2=strong coloration.

Experiment [2] relates to Candida albicans. Briefly: Coloration of Candida albicans colonies on detection medium. Set-up: key: 0=absence of coloration; 0.5=trace coloration; 1=weak coloration; 2=strong coloration. The following applies: stool B. Format: cell-based. Here is the method:
as §1, §2, §3, §4, §5

In experiment [3] the test system is Candida albicans. Described as above. The following applies: stool A. Further details: key: 0=no coloration; 0.5=trace of coloration; 1=weak coloration; 2=strong coloration. Format: cell-based. The protocol: as §1, §2, §3, §4, §5
The subject of experiment [4] is free esterases in stools. Kind of experiment: Coloration at the point of deposit of the stool on Candida detection medium. Format: biochemical. Set-up: key: 0=absence of coloration; 0.5=trace coloration; 1=weak coloration; 2=strong coloration. Conditions: Table 4, no strain. Here is the method:
as §1, §2, §3, §4, §5

Experiment [5] concerns free esterases in stools. The experiment is described as above. In kind it is biochemical. Conditions: summary in words. Here is the method:
as §1, §2, §3, §4, §5

Another experiment concerns Salmonella bacteria. Kind of experiment: Enzymes originating from the bacteria (Salmonella colonies), overall statement. Format: cell-based. Conditions: summary in words. The protocol: (§6) Seeding of Salmonella bacteria: 10 μl of stools are deposited onto a Petri dish, this stool suspension is mixed or not mixed with 10 μl of a suspension of Salmonella (0.5 McF) and isolated as 3 dials on a Petri dish. Various […] and various Salmonella strains originating from the applicant's collection are used according to this protocol. The Petri dishes are incubated at 37° C. for 24 hours. The appearance of a coloration at the point of deposit of the stool (“deposit” column) and at the Salmonella colony (“colony” column) is read according to a semi-quantitative scale: • 0=no coloration • 0.5=trace of coloration • 1=weak coloration • 2=strong coloration The results obtained are given in Table 1.
(§7) Preparation of the detection medium: 250 ml of the medium of Example 1, in which the O,O-diethyl p-nitrophenyl phosphate is replaced with various concentrations of O,O-di-(2-chloroethyl)-O-(3-chloro-4-methylcoumarin-7-yl)phosphate (Haloxon®; CAS No. 321-55-1; R276995, Sigma, St Quentin Fallavier, France; 0; 1; 10; 100 or 1000 mg/l), are prepared according to the method of Example 1.
as §3
(§8) Seeding of Salmonella bacteria: The Petri dishes are inoculated, incubated and read as in Example 1.

The subject of the next experiment is Salmonella Paratyphi A. Kind of experiment: Coloration of Salmonella Paratyphi A colonies on detection medium. In kind it is cell-based. Further details: key: 0=no coloration; 0.5=trace of coloration; 1=weak coloration; 2=strong coloration. The protocol:
as §1
(§9) Melting is carried out at 100° C., and the medium is autoclaved at 121° C. for 15 minutes. The additives are then added to the medium: Magenta C8 (500 mg/l; B-7102, BIOSYNTH, Staad, Switzerland); X-glucoside (75 mg/l; B-7250, BIOSYNTH, Staad, Switzerland); cefsulodine (10 mg/l; C 4786, Sigma, St Quentin Fallavier, France) and various concentrations of the inhibitor O,O-diethyl p-nitrophenyl phosphate (Paraoxon® ethyl; CAS No. 311-45-5; 36186, Riedel-de Haën, St Quentin Fallavier, France; 0; 1; 5 or 10 mg/l).
(§10) The various detection media thus obtained are then poured into Petri dishes.
as §6, §7, §3, §8

The nature of experiment [6]: Colonies column read for stool without added strain, Salmonella detection medium. Further details: key: 0=no coloration; 0.5=trace of coloration; 1=weak coloration; 2=strong coloration. Conditions: no strain. Here is the method:
as §1, §9, §10, §6
Melting is carried out at 100° C., and the medium is autoclaved at 121° C. for 15 minutes. The additives are then added to the medium: Magenta C8 (500 mg/l; B-7102, BIOSYNTH, Staad, Switzerland); X-glucoside (75 mg/l; B-7250, BIOSYNTH, Staad, Switzerland); cefsulodine (10 mg/l; C 4786, Sigma, St Quentin Fallavier, France) and various concentrations of the inhibitor O,O-dimethyl p-nitrophenyl phosphate (Paraoxon® methyl; CAS No. 950-35-6; Riedel-de Haën, St Quentin Fallavier, France; 5, 10, 25 mg/l).
as §8, §7, §3

Experiment [7] has as its system Candida dubliniensis. Kind of experiment: Coloration of Candida dubliniensis colonies on detection medium. In kind it is cell-based. Set-up: key: 0=absence of coloration; 0.5=trace coloration; 1=weak coloration; 2=strong coloration. The following applies: Table 4, 5 mg/l. Here is the method:
as §1, §2, §3, §4, §5

Turning to `Cc1c(Cl)c(=O)oc2cc(OP(=O)(OCCCl)OCCCl)ccc12` [O,O-di-(2-chloroethyl)-O-(3-chloro-4-methylcoumarin-7-yl) phosphate], the Colonies coloration is listed as 1 with Candida dubliniensis [1] (Table 4, 75 mg/l, stool A); 1 in the experiment with Candida dubliniensis [1] (Table 4, 75 mg/l, stool B); 0.5 with Candida albicans [2] (Table 4, 75 mg/l); 1 with Candida albicans [3] (Table 4, 75 mg/l); 2 with Salmonella Paratyphi A (Table 3, 1 mg/l, stool A); 2 in the experiment with Salmonella Paratyphi A (Table 3, 1 mg/l, stool B). In addition, the Colonies coloration in the experiment with Salmonella Paratyphi A (Table 3, 10 mg/l, stool A) is 2; in the experiment with Salmonella Paratyphi A (Table 3, 10 mg/l, stool B) it was 2; in the experiment on Salmonella Paratyphi A (Table 3, 100 mg/l, stool A), 1; in the experiment with Salmonella Paratyphi A (Table 3, 100 mg/l, stool B), 1; in the experiment on Salmonella Paratyphi A (Table 3, 1000 mg/l, stool A), 0.5; with Salmonella Paratyphi A (Table 3, 1000 mg/l, stool B), 0.5. The Colonies coloration in experiment [6] (Table 3, 1 mg/l, stool A) is 0; in [6] (Table 3, 1 mg/l, stool B) it was 0; in [6] (Table 3, 10 mg/l, stool A), 0; in experiment [6] (Table 3, 10 mg/l, stool B) it was 0; in experiment [6] (Table 3, 100 mg/l, stool A) it was 0; in experiment [6] (Table 3, 100 mg/l, stool B), 0. Also, the Colonies coloration in experiment [6] (Table 3, 1000 mg/l, stool A) is reported as 0; in experiment [6] (Table 3, 1000 mg/l, stool B), 0. Besides, the Deposit coloration in the experiment with free esterases in stools [4] (75 mg/l, stool A) is reported as 0; in the experiment with free esterases in stools [4] (75 mg/l, stool B), 0. Further, the “Aspecific enzymatic reactions due to the presence of free enzymes” value in the experiment with free esterases in stools [5] is “greatly inhibited”. In addition, the “Enzymes originating from the bacteria” value with Salmonella bacteria is listed as “not inhibited”.

`COP(=O)(OC)Oc1ccc([N+](=O)[O-])cc1` [O,O-dimethyl p-nitrophenyl phosphate]: the Colonies coloration in the experiment with Candida dubliniensis [1] (Table 4, 25 mg/l, stool A) is on record as 1; in the experiment on Candida dubliniensis [1] (Table 4, 25 mg/l, stool B) it was 1; with Candida albicans [2] (Table 4, 25 mg/l), 0.5; in the experiment with Candida albicans [3] (Table 4, 25 mg/l) it was 1; in [6] (Table 2, 5 mg/l, stool C), 0; in experiment [6] (Table 2, 5 mg/l, stool D) it was 0. The Colonies coloration in [6] (Table 2, 10 mg/l, stool C) came to 0; in experiment [6] (Table 2, 10 mg/l, stool D), 0; in experiment [6] (Table 2, 25 mg/l, stool C), 0; in experiment [6] (Table 2, 25 mg/l, stool D), 0. Further, the Deposit coloration stood at 0 in the experiment on free esterases in stools [4] (25 mg/l, stool A) and 0 in the experiment on free esterases in stools [4] (25 mg/l, stool B). Also, the “Aspecific enzymatic reactions due to the presence of free enzymes” value in the experiment with free esterases in stools [5] was “greatly inhibited”.

Turning to `CCOP(=O)(OCC)Oc1ccc([N+](=O)[O-])cc1` [O,O-diethyl p-nitrophenyl phosphate], the Colonies coloration in the experiment on Candida albicans [2] (Table 4, 5 mg/l) was 0.5; in the experiment with Candida albicans [3] (Table 4, 5 mg/l) it was 1; in the experiment with Candida dubliniensis [7] (stool A), 0.5; in the experiment with Candida dubliniensis [7] (stool B) it was 0.5; with Salmonella Paratyphi A (Table 1, 1 mg/l, stool A), 1; with Salmonella Paratyphi A (Table 1, 1 mg/l, stool B), 1. Further, the Colonies coloration amounted to 1 in the experiment with Salmonella Paratyphi A (Table 1, 5 mg/l, stool A); 1 with Salmonella Paratyphi A (Table 1, 5 mg/l, stool B); 1 in the experiment with Salmonella Paratyphi A (Table 1, 10 mg/l, stool A); 1 in the experiment on Salmonella Paratyphi A (Table 1, 10 mg/l, stool B); 0 in experiment [6] (Table 1, 1 mg/l, stool A); 0 in experiment [6] (Table 1, 1 mg/l, stool B). The Colonies coloration in [6] (Table 1, 5 mg/l, stool A) came out at 0; in [6] (Table 1, 5 mg/l, stool B), 0; in experiment [6] (Table 1, 10 mg/l, stool A), 0; in experiment [6] (Table 1, 10 mg/l, stool B), 0. Moreover, the Deposit coloration in the experiment on free esterases in stools [4] (5 mg/l, stool A) is recorded as 0; in the experiment on free esterases in stools [4] (5 mg/l, stool B), 0. The “Aspecific enzymatic reactions due to the presence of free enzymes” value in the experiment on free esterases in stools [5] was “greatly inhibited”.

Values taken from patent US7691601B2, “Medium for detecting and/or identifying of microorganisms” (priority 2003, dated 2010).
